Laboratory results reported in patent publication US12241058B2, “Recombinant microbial system for directed evolution of glycocins and method of preparation thereof” (COUNCIL OF SCIENTIFIC & INDUSTRIAL RESEARCH, priority 2018, dated 2025).
No end group written: not given here. *: point of attachment. X1 = OC[C@H]1O[C@@H](O[C@H]2[C@H](O)[C@@H](O)[C@H](*)O[C@@H]2CO)[C@H](O)[C@@H](O)[C@@H]1O

How the values were obtained:
E. coli MTCC 1610 = assay: Agar diffusion test (ADT) of cleaved neo-glycocins; assay type: cell-based
Text: (§1) FIG. 5B (d-i): Confirmation of antimicrobial activity of cleaved neo glycocins against bacterial strains namely L. monocytogenes EGDe (FIG. 5Bd-e): Vibrio cholera MTCC 3904 (FIG. 5Bf), E. coli 1610 (FIG. 5Bg), Bacillus lichenmformis MTCC 9857 (FIG. 5Bh) and Bacillus halodurans MTCC 7181 (FIG. 5Bi) using ADT;
Where in #1, f and g: cell lysate of cleavage buffer treated C13T, a variant of Enterocin 96 having SEQ ID NO: 10; #2, f and g: positive control parent peptide Enterocin 96 diglycosylated having SEQ ID NO: 9; #3, f and g: negative control/lysis buffer; #4.f and g: is negative control/cleavage buffer;
(§2) The cell lysate containing glycocins were directly subjected to agar diffusion test (ADT) using L. monocytogenes EGD-e. In ADT, the agar plates seeded with L. monocytogenes EGD-e (approximately 10^7 cells) were prepared. Approximately 100 μL lysate containing glycocin or its variants (neo-glycocin) (SEQ ID NO: 9, SEQ ID NO: 10 and SEQ ID NO: 11) were applied into the wells in the seeded plate followed by incubation of the plate at 4° C. for 1 h. Presence of inhibition zones around the wells was checked post overnight incubation of the plates at 37° C. The antimicrobial activities of the glycocin and neo-glycocin were determined by monitoring the zone of growth inhibition on the plates.

[1] = system: Bacillus licheniformis MTCC 9857; assay: Agar diffusion test (ADT) of cleaved neo-glycocins; assay type: cell-based
Text: as §1
Wherein #1, h and i: cell lysate of cleavage buffer treated C13T, a variant of Enterocin 96 having SEQ ID NO: 10; #2, h and i: positive control parent peptide Enterocin 96 diglycosylated having SEQ ID NO: 9; #3, h and i: negative control/cleavage buffer; #4, h and i: is nisin (1 mg/ml).
as §2

[2] = Cytotoxicity MTT reduction assay; assay type: cell-based; conditions: human; 50% cell death, THP-1 cells, MTT, 18-24 hours
Protocol: (§3) Cytotoxicity of Enterocin 96 and its variants (neo-glycocins) against THP-1 cells and anti-cancer potential against HepG2 cells was measured by the conventional MTT reduction assay. HepG2 and THP-1 cells (1×10^4 cells/well) were seeded into the 96-well plate and cultured at 37° C. in an atmosphere of 5% CO2 to allow them to adhere overnight. After 24 hours, the cells were exposed to Enterocin 96 and its variants (neo-glycocins) at various concentrations (75-1000 μM) for 18-24 hours. After the incubation period, 150 μl media and the suspended cells were discarded and washed with 200 μl PBS. After that, 200 μl of fresh media was added followed by 20 μl of MTT (5 mg/mL) into each well in the 96-well plate and incubated for 4 h in CO2 incubator. One hundred and fifty microlitres of medium with MTT was removed from every well and 100 μl DMSO was added to each well to solubilize the formazan crystal by incubating for 20 min in CO2 incubator. Finally, the plates were read at 570 nm by using Multiskan Go plate-reader (Thermo Scientific) and then percentage of cell viability was determined.

L. monocytogenes EGD-e = assay: Agar diffusion test (ADT) of cell lysates, zone of growth inhibition, with PAS staining for glycosylation; assay type: cell-based, Listeria monocytogenes; conditions: for Zone of inhibition as well as glycosylation positive: ADT against L. monocytogenes, cleavage buffer treated cell lysate, glycosylation by PAS staining
[3] = system: L. monocytogenes MTCC 839; assay: Agar diffusion test (ADT) of cleaved neo-glycocins; assay type: cell-based, Listeria monocytogenes; conditions: L. monocytogenes MTCC 839, FIG. 5Bd-e
human red blood cells = assay: Hemolytic assay; assay type: cell-based
Protocol: Samples were prepared within 3 h of performing the assay. Neo-glycocins stock solutions of 1 mg/ml were prepared by dissolving the neo-glycocins in PBS (10 mM phosphate buffer, pH 7.4); the samples were mixed by inversion to ensure neo-glycocins were completely dissolved in PBS. To prepare the Human Red Blood Cell (hRBC) solution, blood was collected from healthy individual and RBCs were isolated following standard procedure. Informed consent was acquired from all donors and this work was carried out in compliance with the ethical committee guidelines of CSIR-IMTECH with IEC NO SUIEC/14/03.
2 ml whole blood from healthy individual was centrifuged for 30 mins at 1000 rpm(4° C.). Layer of RBCs was collected and diluted with equal volume of 1×PBS and mixture was centrifuged three times for 10 mins at 1000 rpm, 4° C. To prepare 4% RBC solution, 1 ml of RBC were mixed with 24 ml 1×PBS. To examine the hemolysis property of neo-glycocins (75-1000 μM), 20 μl of freshly prepared neo-glycocins solution was mixed with 180 μl of freshly prepared hRBC solution and was placed at 37° C. for 1 h. A total of 20 μl of PBS buffer only and 20 μl of Triton X-100 1% (w/v) were mixed with 180 μl of hRBC solution as negative and positive controls, respectively. After 1 h of incubation, all samples were centrifuged at 2500 rpm for 10 min. A total of 100 μl of supernatant was collected, and the release of hemoglobin was monitored by measuring the absorbance of the supernatant at 570 nm with a Multiskan Go plate-reader (Thermo Scientific). Hemolysis percentage for each sample was calculated by dividing sample's absorbance on positive control absorbance (complete hemolysis) multiplied by 100.

L. monocytogenes [4] = assay: pH and heat stability, bioactivity verified using ADT assay; conditions: 121° C. for 15 minutes
bacterial strains = assay: Antimicrobial spectrum by ADT against bacterial strains; assay type: cell-based; conditions: FIG. 5B a-i
Protocol: as §1
Simultaneously, to check the change in spectrum of bioactivity of neo-glycocins, the agar plates of L. monocytogenes EGD-e seeded with approximately 10^7 bacterial cells were prepared. A 100 μL of cell lysate of mutants were added into the each well and then the plate was incubated at 4° C. for 1 h followed by overnight incubation at 37° C. The presence of inhibition zones around the wells was checked. The antimicrobial activity was determined by monitoring the zone of growth inhibition. […] The glycosylation status of the neo-glycocin produced from the selected mutant were analyzed using PAS staining and MALDI-TOF and LC-ESI-MS analysis as discussed below.

HepG2 cells = assay: Anti-cancer MTT reduction assay; assay type: cell-based
Protocol: as §3

THP-1 cells = assay: Cytotoxicity MTT reduction assay; assay type: cell-based
Protocol: as §3

L. monocytogenes [5] = assay: Determination of the MIC against L. monocytogenes (96-well broth dilution); assay type: cell-based, Listeria monocytogenes; conditions: Minimum Inhibitory Concentration against L. monocytogenes, 18 h at 37° C.
Protocol: One colony of an indicator strain (L. monocytogenes) was picked from an NB agar plate, inoculated to liquid NB medium and grown at 37° C., in a shaking incubator until OD^600 nm of 0.5 was reached. Then, the culture was diluted with NB medium and serial twofold dilutions with NB medium were made. Hundred microliters of Enterocin 96 solution (1 mg/ml in MQ) were transferred to a 96-well plate and mixed with 100 μl previously prepared cell suspension of sensitive strain. Similarly, positive control Nisin (1 mg/ml in MQ, Sigma Cat. # N5764), 100 μl mixture of NB medium with the Listeria, and negative controls (media alone, untreated indicator strain). 100 μL mixture of NB medium were prepared and dispersed in the same 96-well plates. The plate was incubated for 18 h at 37° C. in a shaking incubator. After incubation, the growth of bacteria was evaluated visually and by a plate reader. The analyses were performed in triplicate. Similarly, MIC of other variants of Enterocin 96 (neo-glycocins) was determined using above described method.

Substance: MASKRDCNLMKACCAGQAVTYAIHSLLNRLGGDS(X1)SDPAGCNDIVRKYCK (cysteines drawn unpaired) [SEQ ID NO: 9, Enterocin 96, reference compound]
- Bioactivity against Gram negative bacteria E. coli MTCC 1610 (E. coli MTCC 1610): not
- Bioactivity against Gram positive spore forming bacteria Bacillus licheniformis MTCC 9857 [1]: not
- IC50 [2]: 194.1 ± 0.119 µM

Substance: MASKRDCNLMKACCAGQAVTYAIHSLLNRLGGDC(X1)SDPAGCNDIVRKYCK (cysteines drawn unpaired) [SEQ ID NO: 40]
- Zone of inhibition as well as glycosylation positive (L. monocytogenes EGD-e): positive
- Zone of inhibition as well as glycosylation positive (L. monocytogenes EGD-e; listed as S34C): Yes
- Bioactivity compared with the parent peptide (L. monocytogenes EGD-e; ADT, L. monocytogenes EGDe, FIG. 5Bd-e): equally bioactive
- Bioactivity compared with the parent peptide [3]: equally bioactive
- IC50 [2]: 314.7 ± 0.18 µM

Substance: MASKRDCNLMKATCAGQAVTYAIHSLLNRLGGDS(X1)SDPAGCNDIVRKYCK (cysteines drawn unpaired) [SEQ ID NO: 10]
- Hemolysis compared with Nisin and Enterocin 96 (human red blood cells; FIG. 6A): no significant change
- Bioactivity against L. monocytogenes post autoclaving (L. monocytogenes [4]): retain bioactivity
- Zone of inhibition as well as glycosylation positive (L. monocytogenes EGD-e): positive
- Zone of inhibition as well as glycosylation positive (L. monocytogenes EGD-e; listed as C13T): Yes
- Water solubility (Water solubility): water soluble
- Antimicrobial spectrum compared with native glycocin / Nisin and Enterocin 96 (bacterial strains): different antimicrobial spectrum
- Antimicrobial spectrum compared with native glycocin / Nisin and Enterocin 96 (bacterial strains; listed as C13T): improved antibacterial spectrum
- Cytotoxicity compared with Nisin and Enterocin 96 (HepG2 cells; HepG2, FIG. 6C): no significant change
- Bioactivity against Gram negative bacteria E. coli MTCC 1610 (E. coli MTCC 1610): observed
- Bioactivity against Gram positive spore forming bacteria Bacillus licheniformis MTCC 9857 [1]: observed
- Cytotoxicity compared with Nisin and Enterocin 96 (THP-1 cells; THP-1, FIG. 6B): no significant change
- IC50 [2]: 248.6 ± 0.105 µM

Substance: neo-glycocin with pediocin box (YYGNGV): MASKYYGNGVKRDCNLMKACCAGQAVTYAIHSLLNRLGGDSSDPAGCNDIVRKYCK (not fully specified; cysteine pairing not given here) [SEQ ID NO: 11]
- Hemolysis (MHC in μM) (human red blood cells): 600 µM
- Zone of inhibition as well as glycosylation positive (L. monocytogenes EGD-e): positive
- Zone of inhibition as well as glycosylation positive (L. monocytogenes EGD-e; listed as PedioEnt96): Yes
- Activity against L. monocytogenes compared with diglycosylated glycocin (L. monocytogenes EGD-e; monoglycosylated length and glycan variant, strain not specified): as active as diglycosylated glycocin
- Antimicrobial spectrum compared with native glycocin / Nisin and Enterocin 96 (bacterial strains): different antimicrobial spectrum
- IC50 (HepG2 cells; 50% cell (cancerous) death, HepG2 cells, MTT, 18-24 hours): 192.1 ± 0.135 µM
- IC50 (THP-1 cells; 50% cell death, THP-1 cells, MTT, 18-24 hours): 233.6 ± 0.132 µM
- Anti-bacterial activity (MIC in μM) (L. monocytogenes [5]): >0.54 µM
